One assay has as its target T1, Hexokinase HKDC1 (Homo sapiens, UniProt Q2TB90).
T1 sequence (Q2TB90 whole entry): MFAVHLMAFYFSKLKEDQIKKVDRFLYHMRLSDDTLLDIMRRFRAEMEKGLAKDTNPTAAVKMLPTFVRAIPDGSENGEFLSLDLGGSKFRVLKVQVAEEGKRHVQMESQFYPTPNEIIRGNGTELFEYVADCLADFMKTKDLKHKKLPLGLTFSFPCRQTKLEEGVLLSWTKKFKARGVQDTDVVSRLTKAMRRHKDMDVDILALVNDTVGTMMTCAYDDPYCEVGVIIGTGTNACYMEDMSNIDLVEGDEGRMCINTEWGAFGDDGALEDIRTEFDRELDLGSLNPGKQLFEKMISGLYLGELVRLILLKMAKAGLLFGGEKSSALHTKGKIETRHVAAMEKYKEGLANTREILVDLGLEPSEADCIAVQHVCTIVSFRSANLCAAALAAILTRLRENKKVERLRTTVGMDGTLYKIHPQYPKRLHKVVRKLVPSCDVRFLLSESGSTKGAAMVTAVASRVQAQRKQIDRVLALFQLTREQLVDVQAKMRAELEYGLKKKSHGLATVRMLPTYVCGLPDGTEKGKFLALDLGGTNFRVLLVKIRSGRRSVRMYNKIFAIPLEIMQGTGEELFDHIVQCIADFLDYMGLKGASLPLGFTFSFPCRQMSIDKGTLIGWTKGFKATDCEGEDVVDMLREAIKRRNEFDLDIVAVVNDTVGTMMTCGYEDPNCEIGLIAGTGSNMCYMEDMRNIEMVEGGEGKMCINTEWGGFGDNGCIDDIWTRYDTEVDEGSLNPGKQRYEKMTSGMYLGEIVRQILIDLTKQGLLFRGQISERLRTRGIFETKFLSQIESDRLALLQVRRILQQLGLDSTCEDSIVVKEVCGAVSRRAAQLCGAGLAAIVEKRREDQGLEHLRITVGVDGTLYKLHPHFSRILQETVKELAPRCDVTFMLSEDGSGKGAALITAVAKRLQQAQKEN
Briefly: inhibition of HKDC1 glucose phosphorylation – biochemical, W721R variant, dose response (AID 504729). In kind it is functional.

The next assay has as its target Estrogen receptor beta (Homo sapiens, UniProt Q92731).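 Also: recombinant ER-beta bound to coactivator SRC1 peptide in presence of estradiol agonist; inhibitors block coactivator peptide binding and lower the FRET signal.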
A further assay has as its target T2, Estrogen receptor (Homo sapiens, UniProt P03372).
T2 sequence (P03372 whole entry): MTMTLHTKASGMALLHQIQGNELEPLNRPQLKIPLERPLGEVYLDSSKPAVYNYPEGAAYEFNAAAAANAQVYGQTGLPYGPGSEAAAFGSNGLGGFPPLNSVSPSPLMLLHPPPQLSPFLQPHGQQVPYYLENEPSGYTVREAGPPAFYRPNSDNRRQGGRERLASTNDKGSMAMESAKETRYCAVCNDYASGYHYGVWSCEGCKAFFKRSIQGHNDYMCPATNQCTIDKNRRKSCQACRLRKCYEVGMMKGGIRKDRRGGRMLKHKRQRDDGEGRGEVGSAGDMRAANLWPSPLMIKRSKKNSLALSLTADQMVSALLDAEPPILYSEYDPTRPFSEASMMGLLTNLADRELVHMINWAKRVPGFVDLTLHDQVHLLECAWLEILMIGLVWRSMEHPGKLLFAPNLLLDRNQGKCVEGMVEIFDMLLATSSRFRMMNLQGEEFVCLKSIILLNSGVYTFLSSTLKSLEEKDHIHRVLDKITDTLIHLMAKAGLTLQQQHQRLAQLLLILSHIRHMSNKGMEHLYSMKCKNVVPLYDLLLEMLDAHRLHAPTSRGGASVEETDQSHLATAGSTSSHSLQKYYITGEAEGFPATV

A short description of assay [1]: THP-1 cell cytotoxicity, dose response, cytotoxicity control for non-replicating M. tuberculosis project (AID 489025). It is filed as functional.
A short description of assay [2]: Vero E6 cell cytotoxicity, dose response, cytotoxicity control for non-replicating M. tuberculosis project, secondary assay (AID 492998). In kind it is functional, VeroE6. Particulars: Vero C1008.
Assay [3] is described as follows: viability of PTEN-deleted HCT116 cells – cell-based, HCT116 PTEN knockout, dose response (AID 1047).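 Also: HCT116 colon tumor cells with PTEN knocked out; cells exposed to compound for 60 hours before readout; potency for loss of cell viability measured by luminescence.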 In kind it is functional.
Assay [4] can be described thus: HepG2 cell cytotoxicity, dose response, cytotoxicity control for non-replicating M. tuberculosis project (AID 489018). It is filed as functional. The note with it: Mycobacterium tuberculosis.
The nature of the next assay: cells. In kind it is functional.
The nature of assay [5]: viability of HCT116 lacking mutant beta-catenin – cell-based, human colon tumor, dose response (AID 1045).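 Also: HCT116 colon tumor cells with beta catenin knocked out; cells exposed to compound for 60 hours.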 It is filed as functional.
Assay [6] can be described thus: A cytotoxicity screen of small molecule inhibitors of the PhoP region in Salmonella typhi identified in the primary screen. [Related pubchem assays: 1850, 1864, 1985 ]. In kind it is functional.
The target of assay [7] is Alkaline phosphatase, placental type (Homo sapiens, UniProt P05187). The assay is described as follows: human placental alkaline phosphatase inhibition – biochemical, luminescence, confirmation (AID 1512). In kind it is functional.
Chain of Alkaline phosphatase, placental type (P05187 whole entry): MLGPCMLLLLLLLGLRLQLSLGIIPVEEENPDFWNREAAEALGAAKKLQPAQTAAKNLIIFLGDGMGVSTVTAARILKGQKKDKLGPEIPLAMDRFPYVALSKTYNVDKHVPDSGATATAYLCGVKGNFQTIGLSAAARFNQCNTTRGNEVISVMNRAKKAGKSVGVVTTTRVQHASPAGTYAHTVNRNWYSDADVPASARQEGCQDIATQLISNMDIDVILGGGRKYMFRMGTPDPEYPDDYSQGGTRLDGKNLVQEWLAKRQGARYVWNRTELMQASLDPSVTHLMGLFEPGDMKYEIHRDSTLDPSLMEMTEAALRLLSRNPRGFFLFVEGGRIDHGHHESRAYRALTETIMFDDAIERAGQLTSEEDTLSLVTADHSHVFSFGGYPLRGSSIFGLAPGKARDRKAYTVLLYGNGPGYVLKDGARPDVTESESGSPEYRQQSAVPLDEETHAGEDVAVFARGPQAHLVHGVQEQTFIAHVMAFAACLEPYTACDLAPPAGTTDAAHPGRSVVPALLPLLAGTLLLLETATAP
Assay [8] has as its target Glyceraldehyde-3-phosphate dehydrogenase (Homo sapiens, UniProt P04406).
Assay [9] has as its target T3, Alkaline phosphatase, tissue-nonspecific isozyme (Homo sapiens, UniProt P05186).
T3 sequence (P05186 whole entry): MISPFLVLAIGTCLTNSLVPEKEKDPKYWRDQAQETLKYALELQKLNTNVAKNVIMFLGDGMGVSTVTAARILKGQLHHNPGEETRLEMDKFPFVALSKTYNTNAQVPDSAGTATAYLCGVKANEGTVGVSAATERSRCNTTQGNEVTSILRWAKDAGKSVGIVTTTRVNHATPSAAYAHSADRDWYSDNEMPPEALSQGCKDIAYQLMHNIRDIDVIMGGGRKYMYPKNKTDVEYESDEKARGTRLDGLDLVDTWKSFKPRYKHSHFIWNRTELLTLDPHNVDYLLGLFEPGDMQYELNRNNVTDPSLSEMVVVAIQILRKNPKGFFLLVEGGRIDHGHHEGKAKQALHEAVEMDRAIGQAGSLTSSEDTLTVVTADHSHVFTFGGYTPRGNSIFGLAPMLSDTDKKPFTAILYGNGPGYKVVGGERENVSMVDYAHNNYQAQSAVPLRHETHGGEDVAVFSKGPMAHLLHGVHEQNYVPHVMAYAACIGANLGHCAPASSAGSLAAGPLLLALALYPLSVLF
Briefly: potency against alkaline phosphatase TNAP – biochemical, luminescent, dose response, SAR follow-up (AID 1056).

Assay [10] deals with T4, Replicative DNA helicase DnaB (Mycobacterium tuberculosis, UniProt P9WMR3).
T4 sequence (P9WMR3 whole entry): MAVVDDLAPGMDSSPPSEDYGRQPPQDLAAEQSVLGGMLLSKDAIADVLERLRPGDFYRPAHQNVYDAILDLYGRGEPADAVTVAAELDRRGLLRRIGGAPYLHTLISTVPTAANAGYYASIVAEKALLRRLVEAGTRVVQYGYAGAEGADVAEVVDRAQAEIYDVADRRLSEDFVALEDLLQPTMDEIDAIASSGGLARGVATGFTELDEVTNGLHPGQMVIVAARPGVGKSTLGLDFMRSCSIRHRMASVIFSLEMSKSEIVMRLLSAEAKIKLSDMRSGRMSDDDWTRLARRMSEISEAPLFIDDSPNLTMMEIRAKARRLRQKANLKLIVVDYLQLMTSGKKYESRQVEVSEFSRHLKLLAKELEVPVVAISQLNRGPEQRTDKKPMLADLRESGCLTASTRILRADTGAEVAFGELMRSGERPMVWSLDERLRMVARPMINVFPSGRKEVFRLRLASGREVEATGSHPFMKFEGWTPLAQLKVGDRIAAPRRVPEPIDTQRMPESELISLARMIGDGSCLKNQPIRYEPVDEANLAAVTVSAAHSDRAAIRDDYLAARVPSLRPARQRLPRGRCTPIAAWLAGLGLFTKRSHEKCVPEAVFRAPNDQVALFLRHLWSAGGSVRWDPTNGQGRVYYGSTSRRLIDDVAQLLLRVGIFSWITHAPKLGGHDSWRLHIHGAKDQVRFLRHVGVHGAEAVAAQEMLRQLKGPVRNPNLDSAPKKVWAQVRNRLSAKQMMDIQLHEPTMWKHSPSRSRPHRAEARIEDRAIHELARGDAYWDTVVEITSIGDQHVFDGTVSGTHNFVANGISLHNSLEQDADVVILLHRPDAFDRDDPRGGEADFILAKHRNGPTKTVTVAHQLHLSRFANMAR
Briefly: DnaB intein splicing inhibitors, dose response, biochemical, cell-free fluorescence (AID 449749). It is filed as functional.

A further assay has as its target T5, Protein RecA (Mycobacterium tuberculosis, UniProt P9WHJ3).
T5 sequence (P9WHJ3 whole entry): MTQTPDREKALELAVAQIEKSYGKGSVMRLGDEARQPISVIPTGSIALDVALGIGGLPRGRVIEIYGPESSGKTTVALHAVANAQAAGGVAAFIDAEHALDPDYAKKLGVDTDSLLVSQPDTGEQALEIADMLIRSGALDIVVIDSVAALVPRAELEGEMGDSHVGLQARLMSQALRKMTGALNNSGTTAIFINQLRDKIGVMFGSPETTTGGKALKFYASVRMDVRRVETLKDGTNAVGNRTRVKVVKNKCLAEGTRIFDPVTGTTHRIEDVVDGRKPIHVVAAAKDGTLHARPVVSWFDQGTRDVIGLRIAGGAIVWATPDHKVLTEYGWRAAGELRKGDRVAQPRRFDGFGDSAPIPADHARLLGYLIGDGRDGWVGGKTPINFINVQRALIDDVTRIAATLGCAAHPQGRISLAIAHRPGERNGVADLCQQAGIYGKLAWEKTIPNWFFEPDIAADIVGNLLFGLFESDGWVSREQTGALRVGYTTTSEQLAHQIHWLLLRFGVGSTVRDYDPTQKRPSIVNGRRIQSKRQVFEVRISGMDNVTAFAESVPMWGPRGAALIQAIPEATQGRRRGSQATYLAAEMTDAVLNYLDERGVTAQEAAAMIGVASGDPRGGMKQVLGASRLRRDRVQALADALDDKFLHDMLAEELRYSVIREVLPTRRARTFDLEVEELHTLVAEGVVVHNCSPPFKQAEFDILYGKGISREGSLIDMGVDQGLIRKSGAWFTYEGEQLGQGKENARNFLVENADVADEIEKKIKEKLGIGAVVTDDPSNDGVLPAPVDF
Briefly: Fluorescence Cell-Free Homogeneous Dose Retest to Identify Inhibitors of RecA-Intein Splicing Activity. [Related pubchem assays (depositor defined):AID2097, AID2223, AID489010, AID492950]. In kind it is functional.

Assay [11] deals with G2/mitotic-specific cyclin-B1 (Homo sapiens, UniProt P14635). The assay is described as follows: HeLa cell cycle G2/M accumulation – FACS, mechanism study for Wee1 degradation inhibitor project, late-stage follow-up, panel member Cyclin B Degradation (AID 2088).
Chain of G2/mitotic-specific cyclin-B1 (P14635 whole entry): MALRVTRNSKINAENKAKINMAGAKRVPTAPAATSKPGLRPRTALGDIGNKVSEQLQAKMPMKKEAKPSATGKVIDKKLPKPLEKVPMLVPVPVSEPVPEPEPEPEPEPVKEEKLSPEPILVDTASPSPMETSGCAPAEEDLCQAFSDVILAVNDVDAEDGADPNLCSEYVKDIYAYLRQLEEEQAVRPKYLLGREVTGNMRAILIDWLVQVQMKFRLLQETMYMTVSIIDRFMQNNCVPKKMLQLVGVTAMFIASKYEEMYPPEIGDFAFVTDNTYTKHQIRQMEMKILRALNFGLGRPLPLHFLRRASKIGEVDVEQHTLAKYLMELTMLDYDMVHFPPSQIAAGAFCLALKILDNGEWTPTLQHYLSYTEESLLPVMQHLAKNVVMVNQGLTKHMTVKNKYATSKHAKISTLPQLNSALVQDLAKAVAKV
For the next assay, the target named is Wee1-like protein kinase (Homo sapiens, UniProt P30291). Briefly: HeLa cell cycle G2/M accumulation – FACS, mechanism study for Wee1 degradation inhibitor project, late-stage follow-up, panel member Wee1 Degradation (AID 2088).
Chain of Wee1-like protein kinase (P30291 whole entry): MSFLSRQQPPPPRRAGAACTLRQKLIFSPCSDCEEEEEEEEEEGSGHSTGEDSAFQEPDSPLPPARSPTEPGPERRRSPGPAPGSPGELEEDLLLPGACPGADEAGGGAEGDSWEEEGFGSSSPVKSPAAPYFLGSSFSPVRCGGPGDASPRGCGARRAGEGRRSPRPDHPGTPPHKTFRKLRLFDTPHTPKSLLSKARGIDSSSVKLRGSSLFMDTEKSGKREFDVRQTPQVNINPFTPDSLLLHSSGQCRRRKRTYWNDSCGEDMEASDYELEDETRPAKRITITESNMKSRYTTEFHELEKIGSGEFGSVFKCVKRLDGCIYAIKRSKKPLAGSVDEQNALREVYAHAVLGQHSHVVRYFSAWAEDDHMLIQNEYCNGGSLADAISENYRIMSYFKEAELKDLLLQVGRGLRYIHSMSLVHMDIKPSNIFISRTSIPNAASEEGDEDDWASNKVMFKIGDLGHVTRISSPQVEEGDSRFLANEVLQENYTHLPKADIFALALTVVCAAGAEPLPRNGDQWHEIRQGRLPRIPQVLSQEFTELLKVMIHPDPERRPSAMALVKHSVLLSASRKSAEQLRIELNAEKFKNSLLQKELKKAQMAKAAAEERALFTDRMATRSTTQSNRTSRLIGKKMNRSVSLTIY

Results on 13 compounds are retold here after ChEMBL document CHEMBL1201862, “PubChem BioAssay data set” (2004).

Calls of active or inactive are those of the source.

Chain of Glyceraldehyde-3-phosphate dehydrogenase (P04406 whole entry): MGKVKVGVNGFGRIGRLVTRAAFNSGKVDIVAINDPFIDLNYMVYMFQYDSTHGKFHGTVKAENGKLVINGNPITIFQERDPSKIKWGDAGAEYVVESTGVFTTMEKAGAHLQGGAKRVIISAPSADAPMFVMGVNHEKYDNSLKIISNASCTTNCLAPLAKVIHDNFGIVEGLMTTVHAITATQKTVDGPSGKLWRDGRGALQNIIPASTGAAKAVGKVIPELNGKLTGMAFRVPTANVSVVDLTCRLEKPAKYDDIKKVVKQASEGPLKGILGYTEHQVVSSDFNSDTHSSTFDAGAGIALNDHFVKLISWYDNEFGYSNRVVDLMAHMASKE
Chain of Estrogen receptor beta (Q92731 whole entry): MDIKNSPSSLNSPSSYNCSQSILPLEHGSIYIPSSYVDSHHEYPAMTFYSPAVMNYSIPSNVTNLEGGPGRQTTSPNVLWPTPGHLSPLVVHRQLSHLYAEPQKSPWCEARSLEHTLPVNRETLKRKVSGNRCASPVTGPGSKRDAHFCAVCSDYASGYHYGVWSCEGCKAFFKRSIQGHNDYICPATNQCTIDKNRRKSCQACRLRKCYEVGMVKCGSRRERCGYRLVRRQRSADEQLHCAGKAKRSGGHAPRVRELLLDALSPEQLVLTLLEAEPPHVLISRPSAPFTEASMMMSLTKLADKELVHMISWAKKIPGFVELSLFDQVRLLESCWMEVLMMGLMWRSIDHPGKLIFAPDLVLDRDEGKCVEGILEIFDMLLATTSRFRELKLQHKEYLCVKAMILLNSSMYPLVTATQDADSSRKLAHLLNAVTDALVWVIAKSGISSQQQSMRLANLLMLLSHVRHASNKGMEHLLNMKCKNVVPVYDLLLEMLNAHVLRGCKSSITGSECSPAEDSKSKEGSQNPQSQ

As a reminder, the IC50 is the midpoint of a concentration-inhibition curve. For the compound `Cc1nc2c(c(=O)c3ccccc3n2C)c(=O)n1-c1ccc(F)cc1`, on Hexokinase HKDC1, the IC50 was 8.25 µM (active).
In the case of `CCOC(=O)c1c(C)oc2c1c(C(c1cccnc1)N1CCCCC1)c(O)c1ccccc12` (stereo not drawn), the half-maximal inhibitory concentration (IC50) against Estrogen receptor beta and against Estrogen receptor was > 50 µM (not active) throughout.
The CC50 is the concentration that lowers cell viability or growth by half. For orientation: EC50 means the concentration that produces a half-maximal response. On to `CCOc1cc(CNC(C)(C)CO)cc(Br)c1OCc1ccc(Cl)cc1Cl`, for which the 50% cytotoxic concentration (CC50) in [1] is 13.4 µM (active); in assay [2], 7.44 µM (active); in assay [4] it was 13.7 µM (active). Further, the EC50 in [3] is 7.54 µM (active); in assay [5] it was 6.52 µM (active). Moreover, in “cells”, the IC50 was 10.5 µM (active).
With `COc1ccc2nc(NC(=O)C3CC(=O)N(c4ccccc4)C3)sc2c1` (stereo not drawn), the 50% effective concentration (EC50) in assay [6] was > 50 µM (active).
As to `COc1ccccc1-c1nnc(SC)[nH]1`, the values for the IC50 in assay [7], in assay [8] and in assay [9] were > 100 µM (inactive), > 100 µM (not active) and 7.95 µM (active), respectively.
The term AC50 denotes the concentration at which the activity in the assay is half-maximal. As for `CN1CCc2nc(SCC(=O)Nc3ccc(F)cc3)c(C#N)cc2C1`, the AC50 in assay [10] is > 380 µM (inactive). At Protein RecA, the EC50 was 38 µM (active). At Estrogen receptor, the IC50 was > 50 µM (not active).
Regarding `Cc1ccc(NC(=O)OCc2cccs2)cc1`, the concentration for a half-maximal effect (EC50) in [6] is > 50 µM (active).
Turning to `OCCSc1n[nH]c(-c2ccccc2)n1`, the IC50 in assay [7] was > 100 µM (inactive); in assay [8] it was > 100 µM (not active); in [9], 16.2 µM (active).
On to `Cc1cc(C)n2cc(CSc3nnc(-c4ccccc4)c(-c4ccccc4)n3)nc2n1`, for which, on Hexokinase HKDC1, the IC50 is 12.5 µM (active).
Turning to `[O-][n+]1onc2c3cc(-c4ccccc4)[nH]c3ccc21`, the EC50 in assay [11] was > 55.7 µM (inactive); at Wee1-like protein kinase, > 6.19 µM (active).
The corresponding values for `Cc1cc(O)nc(-n2nc(C)cc2NC(=O)Cc2ccccc2)n1` are > 49.7 µM (inactive) and > 49.7 µM (inactive).
The corresponding values for `Cc1cc(O)nc(-n2nc(C)cc2NC(=O)c2cccc(Cl)c2)n1` are > 49.7 µM (inactive) and > 49.7 µM (inactive).
`CC1(C)N=C(N)N=C(Nc2cccc(Br)c2)N1`: the EC50 in assay [6] is > 50 µM (active).
